ChEMBL document CHEMBL1201862, “PubChem BioAssay data set” (2004)
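Assay format: 96-well plates, 48-hour exposure. Here, GI50 denotes the concentration required for 50% inhibition of growth.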 Active and inactive are the calls of the source. Rule as the data show it: active = GI50 up to about 1.1 µM and inactive = higher.

Key:
Assay in all cases: NCI tumour cell line growth inhibition, 48 h
HL-60 = test system: HL-60
CAKI-1 = test system: CAKI-1
SNB-19 = test system: SNB-19
U-251 = test system: U-251
HCC 2998 = test system: HCC 2998
CCRF-CEM = test system: CCRF-CEM
LXFL 529 = test system: LXFL 529
SW-620 = test system: SW-620
NCI-H226 = test system: NCI-H226
DMS-114 = test system: DMS-114
KM12 = test system: KM12
A549 = test system: A549
M14 = test system: M14
HOP-92 = test system: HOP-92
SK-MEL-5 = test system: SK-MEL-5
K562 = test system: K562
NCI-H522 = test system: NCI-H522
NCI-H460 = test system: NCI-H460
XF498 = test system: XF498
DLD-1 = test system: DLD-1
SK-OV-3 = test system: SK-OV-3
OVCAR-4 = test system: OVCAR-4
UACC-257 = test system: UACC-257
LOX IMVI = test system: LOX IMVI
HOP-62 = test system: HOP-62
DMS-273 = test system: DMS-273
SN12C = test system: SN12C
786-0 = test system: 786-0
TK-10 = test system: TK-10
OVCAR-3 = test system: OVCAR-3
HT-29 = test system: HT-29
HCT-116 = test system: HCT-116
SK-MEL-28 = test system: SK-MEL-28
KM-20L2 = test system: KM-20L2
HCT-15 = test system: HCT-15
Malme-3M = test system: Malme-3M
OVCAR-8 = test system: OVCAR-8
COLO 205 = test system: COLO 205
ACHN = test system: ACHN
M19-MEL = test system: M19-MEL
UACC-62 = test system: UACC-62
OVCAR-5 = test system: OVCAR-5
UO-31 = test system: UO-31
NCI-H23 = test system: NCI-H23
SF-539 = test system: SF-539
SF-268 = test system: SF-268
IGROV-1 = test system: IGROV-1
A498 = test system: A498
SF-295 = test system: SF-295
SNB-75 = test system: SNB-75
SNB-78 = test system: SNB-78
EKVX = test system: EKVX
RPMI-8226 = test system: RPMI-8226
SR = test system: SR
RXF 393 = test system: RXF 393
SK-MEL-2 = test system: SK-MEL-2
MOLT-4 = test system: MOLT-4

In the case of `Nc1ccc(C(=O)NN2C(=O)C(Cl)C2c2cc(Br)ccc2O)cc1` (centres undefined), the GI50 (HL-60) is reported as 30.1 µM (inactive), the GI50 (CAKI-1) is reported as > 100 µM (inactive) and the GI50 (SNB-19) is reported as > 100 µM (inactive). The GI50 (U-251) was 32.6 µM (inactive), the GI50 (HCC 2998) was > 100 µM (inactive) and the GI50 (CCRF-CEM) was 62.1 µM (inactive). For the same compound, the GI50 (LXFL 529) was > 100 µM (inactive), the GI50 (SW-620) was > 100 µM (inactive) and the GI50 (NCI-H226) was > 100 µM (inactive). The GI50 (DMS-114) was 44.5 µM (inactive), the GI50 (KM12) was > 100 µM (inactive) and the GI50 (A549) was > 100 µM (inactive). The GI50 (M14) was > 100 µM (inactive), the GI50 (HOP-92) was > 100 µM (inactive) and the GI50 (SK-MEL-5) was > 100 µM (inactive). For the same compound, the GI50 (K562) was 70.1 µM (inactive), the GI50 (NCI-H522) was 22.4 µM (inactive) and the GI50 (NCI-H460) was > 100 µM (inactive). The GI50 (XF498) was > 100 µM (inactive), the GI50 (DLD-1) was > 100 µM (inactive) and the GI50 (SK-OV-3) was > 100 µM (inactive). For the same compound, the GI50 (OVCAR-4) was > 100 µM (inactive), the GI50 (UACC-257) was > 100 µM (inactive) and the GI50 (LOX IMVI) was 41.2 µM (inactive). For the same compound, the GI50 (HOP-62) was > 100 µM (inactive), the GI50 (DMS-273) was 80.4 µM (inactive) and the GI50 (SN12C) was > 100 µM (inactive). For the same compound, the GI50 (786-0) was 78.9 µM (inactive), the GI50 (TK-10) was > 100 µM (inactive) and the GI50 (OVCAR-3) was > 100 µM (inactive). The GI50 (HT-29) was 64.6 µM (inactive), the GI50 (HCT-116) was 15.9 µM (inactive) and the GI50 (SK-MEL-28) was > 100 µM (inactive). For the same compound, the GI50 (KM-20L2) was > 100 µM (inactive), the GI50 (HCT-15) was greater than 100 µM and the GI50 (Malme-3M) was > 100 µM (inactive). For the same compound, the GI50 (OVCAR-8) was > 100 µM (inactive), the GI50 (COLO 205) was > 100 µM (inactive) and the GI50 (ACHN) was > 100 µM (inactive). For the same compound, the GI50 (M19-MEL) was > 100 µM (inactive), the GI50 (UACC-62) was > 100 µM (inactive) and the GI50 (OVCAR-5) was > 100 µM (inactive). The GI50 (UO-31) was > 100 µM (inactive), the GI50 (NCI-H23) was > 100 µM (inactive) and the GI50 (SF-539) was > 100 µM (inactive). For the same compound, the GI50 (SF-268) was 50.5 µM (inactive), the GI50 (IGROV-1) was 36.5 µM (inactive) and the GI50 (A498) was > 100 µM (inactive). The GI50 (SF-295) was > 100 µM (inactive), the GI50 (SNB-75) was > 100 µM (inactive) and the GI50 (SNB-78) was > 100 µM (inactive). The GI50 (EKVX) was > 100 µM (inactive) and the GI50 (RPMI-8226) was > 100 µM (inactive).
In the case of `CSCCOC(=O)C(=[N+]=[N-])c1ccc([N+](=O)[O-])cc1`, the GI50 (HL-60) is reported as > 100 µM (inactive), the GI50 (CAKI-1) is reported as > 100 µM (inactive) and the GI50 (SNB-19) is reported as > 100 µM (inactive). For the same compound, the GI50 (U-251) was > 100 µM (inactive), the GI50 (HCC 2998) was > 100 µM (inactive) and the GI50 (CCRF-CEM) was > 100 µM (inactive). The GI50 (LXFL 529) was > 100 µM (inactive), the GI50 (SW-620) was > 100 µM (inactive) and the GI50 (NCI-H226) was > 100 µM (inactive). The GI50 (DMS-114) was > 100 µM (inactive), the GI50 (KM12) was > 100 µM (inactive) and the GI50 (A549) was > 100 µM (inactive). The GI50 (M14) was > 100 µM (inactive), the GI50 (SR) was > 100 µM (inactive) and the GI50 (K562) was > 100 µM (inactive). The GI50 (NCI-H522) was > 100 µM (inactive), the GI50 (NCI-H460) was > 100 µM (inactive) and the GI50 (XF498) was > 100 µM (inactive). For the same compound, the GI50 (DLD-1) was > 100 µM (inactive), the GI50 (SK-OV-3) was > 100 µM (inactive) and the GI50 (OVCAR-4) was > 100 µM (inactive). For the same compound, the GI50 (UACC-257) was > 100 µM (inactive), the GI50 (RXF 393) was > 100 µM (inactive) and the GI50 (LOX IMVI) was > 100 µM (inactive). The GI50 (HOP-62) was > 100 µM (inactive), the GI50 (DMS-273) was > 100 µM (inactive) and the GI50 (SN12C) was > 100 µM (inactive). For the same compound, the GI50 (786-0) was > 100 µM (inactive), the GI50 (TK-10) was > 100 µM (inactive) and the GI50 (OVCAR-3) was > 100 µM (inactive). For the same compound, the GI50 (HT-29) was > 100 µM (inactive), the GI50 (SK-MEL-2) was > 100 µM (inactive) and the GI50 (HCT-116) was > 100 µM (inactive). The GI50 (SK-MEL-28) was > 100 µM (inactive), the GI50 (KM-20L2) was > 100 µM (inactive) and the GI50 (HCT-15) was greater than 100 µM. The GI50 (Malme-3M) was > 100 µM (inactive), the GI50 (OVCAR-8) was > 100 µM (inactive) and the GI50 (COLO 205) was > 100 µM (inactive). The GI50 (ACHN) was > 100 µM (inactive), the GI50 (OVCAR-5) was > 100 µM (inactive) and the GI50 (UO-31) was > 100 µM (inactive). For the same compound, the GI50 (NCI-H23) was > 100 µM (inactive), the GI50 (SF-539) was > 100 µM (inactive) and the GI50 (SF-268) was > 100 µM (inactive). For the same compound, the GI50 (IGROV-1) was > 100 µM (inactive), the GI50 (SF-295) was > 100 µM (inactive) and the GI50 (SNB-75) was > 100 µM (inactive). The GI50 (MOLT-4) was > 100 µM (inactive), the GI50 (EKVX) was > 100 µM (inactive) and the GI50 (RPMI-8226) was > 100 µM (inactive).
